Test results as given in patent US9452177B2, “Vitamin D compounds and methods for reducing ocular hypertension (OHT)” (Wisconsin Alumni Research Foundation, priority 2008, dated 2016).
“Also recorded” adds a separate entry of the source.

What was measured:
[1] = test system: eyes of ocular normotensive cynomolgus monkeys; assay: Intraocular pressure (IOP) by Goldmann applanation tonometry after 5 twice-daily unilateral topical treatments; assay type: in vivo, cynomolgus monkeys (Macaca fascicularis); details: Example 1; for rank order of ocular hypotensive effect: 5 uniocular topical treatments at the same dose; for IOP after the 5th treatment / IOP prior to the 5th treatment compared with baseline: AGR 5 μg n=4, 2MD 6 μg n=8; for IOP prior to the 5th treatment compared with baseline: both treated and control eye
Description: Ocular normotensive adult cynomolgus monkeys (Macaca fascicularis), of either sex, weighing 3-7 kg were anesthetized with i.m. ketamine HCl (3-25 mg/kg, supplemented with 1-10 mg/kg) for IOP and topical drop administration. All monkeys were free of any ocular abnormalities according to slit lamp biomicroscopy at the time measurements were taken. The monkeys were provided by the Primate Center at the University of Wisconsin-Madison. All experiments were done in accordance with the ARVO Statement on the Use of Animals in Ophthalmic and Vision Research.
(§1) The intraocular pressure (IOP) was determined with a “minified” Goldmann applanation tonometer [Kaufman, 1980] using HALF AND HALF™ creamer solution (Borden) as the tear film indicator [Croft, 1997] with the monkey lying prone in a head holder and the eyes positioned 4 to 8 cm above the heart. All monkeys were examined by slit-lamp before the first IOP measurement in each protocol. For each eye, two or three IOP measurements were averaged as a baseline.
Under ketamine anesthesia (KETAJECT™, Phoenix Pharmaceutical, St Joseph, Mo. (3-25 mg/kg i.m., supplemented with 1-10 mg/kg i.m. as needed) baseline IOP was determined, usually between 7:30 and 9 am (2 readings, 5 minutes apart; if IOP baseline measurements were not within 2-3 mm Hg of each other, a 3rd reading was taken 5 min later). Baseline IOP was at least 15 mmHg if possible. A baseline blood sample was taken from the femoral artery or vein, or sometimes the brachial vein (1-2 ml). This was allowed to clot and then spun down (3000 rpm for 10 min, Damon/IEC NH-SII centrifuge) and the serum removed and frozen at −20 C for no more than 1 week. Baseline systolic, diastolic and mean arterial pressure as well as heart rate were recorded with the Dinamap monitor from a cuff placed around the arm or the leg.
After baseline measurements, the monkey was place supine with the eye pointing up and the eyelid held open. A 5 μl drop of test material or vehicle was delivered to opposite eyes. The eyelid was held open for at least 30 sec and the eye was maintained in the upward position for an additional 30 sec. The monkey was then returned to its cage and allowed to wake up. In the afternoon, at least 6 hours after the morning treatment, another treatment was administered. On the second day, dosing was repeated in the am and pm.
(§2) On the 3th day, prior to the 5th treatment, baseline IOP, biomicroscopy and MAP were determined. Preliminary studies indicated an effect was observed after these treatments but not after a single treatment. Following the 5th dose, IOP was measured at 1, 2, 3, 4, 5, 6, 7, 8, 12 (if possible), 24, and sometimes 48 hr. Biomicroscopy was done at 1, 3, 6, 24 and sometimes 48 hr. MAP on day 3 (some protocols) was determined at 1, 2, 3, 4, 5, 6, 7, 8, 24 and sometimes 48 hr if possible. Blood samples after the 5th treatment were collected at 6, 24, and sometimes 48 hr. For some protocols, IOP was also measured prior to each treatment; MAP was measured prior to the morning treatment; blood was collected prior to the afternoon treatment. Subsequent screening protocols will not include the MAP and blood collections and will only measure IOP at baseline and prior to and for 1-6 hr after the 5th treatment.
Adult cynomolgus monkeys (Macaca fascicularis) of either sex were anesthetized with intramuscular ketamine HCl (10 mg/kg initial, 5 mg/kg supplemental). Baseline pretreatment IOP was determined by Goldmann applanation tonometry [Kaufman, 1980] with […] used as a tear film indicator [Croft, 1997]. Two baseline IOP measurements were taken 5 minutes apart. […]

[2] = Ocular inflammation by slit-lamp biomicroscopy; assay type: in vivo, cynomolgus monkeys (Macaca fascicularis); details: Example 1; 5 topical treatments, 5 μg (2MD 6 μg)
Description: as §1, §2
Baseline pretreatment IOP was determined by Goldmann applanation tonometry [Kaufman, 1980] with […] used as a tear film indicator [Croft, 1997]. Two baseline IOP measurements were taken 5 minutes apart. Monkeys were then treated topically with 5 μl of 1,25-dihydroxyvitamin D3 (1,25-(OH)2D3) (0.1-5 μg) to one eye and vehicle (propylene glycol) to the opposite eye twice a day for 5 treatments total. […] IOP was also measured prior to the afternoon treatment. On the third day, IOP was measured prior to the morning treatment. Following the fifth treatment, IOP was measured hourly for 8 hours and, in some cases, also at 12, 24, and 48 hours. […]

SMILES: C=C1[C@H](O)CC(=C/C=C2\CCC[C@]3(C)[C@@H]([C@@H](C)CCCC(C)(C)O)CC[C@@H]23)C[C@H]1O [2MD, 2-methylene-19-nor-(20S)-1α,25-dihydroxyvitamin D3]
- rank order of ocular hypotensive effect [1]: 1,25(OH)2D3>2MD>AGR
- IOP after the 5th treatment [1]: gradually decreased over the next 8 hours similar to the diurnal decline seen with vehicle alone; also recorded: small drug effect at 6 and 7 hours
- IOP prior to the 5th treatment compared with baseline [1]: no different than at baseline
- ocular inflammation [2]: no ocular inflammation at any time-point

SMILES: CC(CCCC(C)(C)O)C1CCC2C(=CC=C3CC(O)C(=CCCO)C(O)C3)CCCC21C (stereo not drawn) [AGR, 2-(3′-hydroxypropylidene)-19-nor-1α,25-dihydroxyvitamin D3]
- IOP in treated eye compared with control eye ([1]; 5 μg (2MD 6 μg) in 5 μl propylene glycol one eye, vehicle opposite eye): no difference between the eyes at any time-point
- rank order of ocular hypotensive effect [1]: 1,25(OH)2D3>2MD>AGR
- IOP in the control (vehicle, contralateral) eye after the 5th treatment ([1]; AGR 5 μg in opposite eye): no change in IOP in the control eye
- IOP after the 5th treatment [1]: not significantly decreased in the treated eye except at the 3 hr time point
- IOP prior to the 5th treatment compared with baseline [1]: no different than at baseline
- ocular inflammation [2]: no ocular inflammation at any time-point
